Results taken from US20260130395A1, “Water Dispersible Botanical Compositions” (Aquila Black Limited, priority 2021, published 2026).

Test: Stability of cannabinoid compounds and Vitamin E components in Beverage 2 (AB Red) by LCMSMS
Type: physicochemical

C=C(C)[C@@H]1CCC(C)=C[C@H]1c1c(O)cc(CCCCC)c(C(=O)O)c1O [CBDA, cannabidiolic acid]
Stability of Plant-Derived Cannabinoid Compounds in AB Red (stored at 8° C., 0 days): 1.68 µg/mL | Stability of Plant-Derived Cannabinoid Compounds in AB Red (stored at 8° C., 1 days): 1.69 µg/mL | Stability of Plant-Derived Cannabinoid Compounds in AB Red (stored at 8° C., 2 days): 1.66 µg/mL | Stability of Plant-Derived Cannabinoid Compounds in AB Red (stored at 8° C., 3 days): 1.64 µg/mL | Stability of Plant-Derived Cannabinoid Compounds in AB Red (stored at 8° C., 5 days): 1.67 µg/mL | Stability of Plant-Derived Cannabinoid Compounds in AB Red (stored at 8° C., 8 days): 1.68 µg/mL | Stability of Plant-Derived Cannabinoid Compounds in AB Red (stored at 8° C., 9 days): 1.65 µg/mL | Stability of Plant-Derived Cannabinoid Compounds in AB Red (stored at 8° C., 10 days): 1.67 µg/mL | Stability of Plant-Derived Cannabinoid Compounds in AB Red (stored at 8° C., 11 days): 1.65 µg/mL | Stability of Plant-Derived Cannabinoid Compounds in AB Red (stored at 8° C., 12 days): 1.68 µg/mL | Stability of Plant-Derived Cannabinoid Compounds in AB Red (stored at 8° C., 15 days): 1.67 µg/mL | Stability of Plant-Derived Cannabinoid Compounds in AB Red (stored at 8° C., 16 days): 1.69 µg/mL | Stability of Plant-Derived Cannabinoid Compounds in AB Red (stored at 8° C., 17 days): 1.64 µg/mL | Stability of Plant-Derived Cannabinoid Compounds in AB Red (stored at 8° C., 18 days): 1.65 µg/mL | Stability of Plant-Derived Cannabinoid Compounds in AB Red (stored at 8° C., 19 days): 1.68 µg/mL | Stability of Plant-Derived Cannabinoid Compounds in AB Red (stored at 8° C., 22 days): 1.70 µg/mL | Stability of Plant-Derived Cannabinoid Compounds in AB Red (stored at 8° C., 23 days): 1.63 µg/mL | Stability of Plant-Derived Cannabinoid Compounds in AB Red (stored at 8° C., 24 days): 1.70 µg/mL | Stability of Plant-Derived Cannabinoid Compounds in AB Red (stored at 8° C., 25 days): 1.63 µg/mL | Stability of Plant-Derived Cannabinoid Compounds in AB Red (stored at 8° C., 26 days): 1.63 µg/mL | Stability of Plant-Derived Cannabinoid Compounds in AB Red (stored at 8° C., 29 days): 1.66 µg/mL | Stability of Plant-Derived Cannabinoid Compounds in AB Red (stored at 8° C., 30 days): 1.70 µg/mL | Stability of Plant-Derived Cannabinoid Compounds in AB Red (stored at 8° C., 60 days): 1.66 µg/mL | Stability of Plant-Derived Cannabinoid Compounds in AB Red (stored at 8° C., 90 days): 1.68 µg/mL | Stability of Plant-Derived Cannabinoid Compounds in AB Red (stored at 8° C., 120 days): 1.65 µg/mL | Stability of Plant-Derived Cannabinoid Compounds in AB Red (stored at 8° C., 150 days): 1.66 µg/mL | Stability of Plant-Derived Cannabinoid Compounds in AB Red (stored at 8° C., 180 days): 1.60 µg/mL | Stability of Plant-Derived Cannabinoid Compounds in AB Red (stored at 8° C., 210 days): 1.65 µg/mL | Stability of Plant-Derived Cannabinoid Compounds in AB Red (stored at 8° C., 240 days): 1.66 µg/mL | Stability of Plant-Derived Cannabinoid Compounds in AB Red (stored at 8° C., 270 days): 1.63 µg/mL | Stability of Plant-Derived Cannabinoid Compounds in AB Red (stored at 8° C., 300 days): 1.65 µg/mL | Stability of Plant-Derived Cannabinoid Compounds in AB Red (stored at 8° C., 330 days): 1.60 µg/mL | Stability of Plant-Derived Cannabinoid Compounds in AB Red (stored at 8° C., 360 days): 1.62 µg/mL | Stability of Plant-Derived Cannabinoid Compounds in AB Red (stored at 8° C., 390 days): 1.63 µg/mL | Stability of Plant-Derived Cannabinoid Compounds in AB Red (stored at 8° C., 420 days): 1.63 µg/mL | Stability of Plant-Derived Cannabinoid Compounds in AB Red (stored at 8° C., 450 days): 1.63 µg/mL | Stability of Plant-Derived Cannabinoid Compounds in AB Red (stored at 8° C., 480 days): 1.60 µg/mL | Stability of Plant-Derived Cannabinoid Compounds in AB Red (stored at 8° C., 510 days): 1.55 µg/mL | Stability of Plant-Derived Cannabinoid Compounds in AB Red (stored at 8° C., 540 days): 1.55 µg/mL | Stability of Plant-Derived Cannabinoid Compounds in AB Red (stored at 8° C., 570 days): 1.54 µg/mL | Stability of Plant-Derived Cannabinoid Compounds in AB Red (stored at 21-25° C., 0 days): 1.68 µg/mL | Stability of Plant-Derived Cannabinoid Compounds in AB Red (stored at 21-25° C., 1 days): 1.70 µg/mL | Stability of Plant-Derived Cannabinoid Compounds in AB Red (stored at 21-25° C., 2 days): 1.65 µg/mL | Stability of Plant-Derived Cannabinoid Compounds in AB Red (stored at 21-25° C., 3 days): 1.64 µg/mL | Stability of Plant-Derived Cannabinoid Compounds in AB Red (stored at 21-25° C., 5 days): 1.69 µg/mL | Stability of Plant-Derived Cannabinoid Compounds in AB Red (stored at 21-25° C., 8 days): 1.64 µg/mL | Stability of Plant-Derived Cannabinoid Compounds in AB Red (stored at 21-25° C., 9 days): 1.63 µg/mL | Stability of Plant-Derived Cannabinoid Compounds in AB Red (stored at 21-25° C., 10 days): 1.61 µg/mL | Stability of Plant-Derived Cannabinoid Compounds in AB Red (stored at 21-25° C., 11 days): 1.64 µg/mL | Stability of Plant-Derived Cannabinoid Compounds in AB Red (stored at 21-25° C., 12 days): 1.70 µg/mL | Stability of Plant-Derived Cannabinoid Compounds in AB Red (stored at 21-25° C., 15 days): 1.64 µg/mL | Stability of Plant-Derived Cannabinoid Compounds in AB Red (stored at 21-25° C., 16 days): 1.67 µg/mL | Stability of Plant-Derived Cannabinoid Compounds in AB Red (stored at 21-25° C., 17 days): 1.63 µg/mL | Stability of Plant-Derived Cannabinoid Compounds in AB Red (stored at 21-25° C., 18 days): 1.65 µg/mL | Stability of Plant-Derived Cannabinoid Compounds in AB Red (stored at 21-25° C., 19 days): 1.70 µg/mL | Stability of Plant-Derived Cannabinoid Compounds in AB Red (stored at 21-25° C., 22 days): 1.66 µg/mL | Stability of Plant-Derived Cannabinoid Compounds in AB Red (stored at 21-25° C., 23 days): 1.63 µg/mL | Stability of Plant-Derived Cannabinoid Compounds in AB Red (stored at 21-25° C., 24 days): 1.65 µg/mL | Stability of Plant-Derived Cannabinoid Compounds in AB Red (stored at 21-25° C., 25 days): 1.64 µg/mL | Stability of Plant-Derived Cannabinoid Compounds in AB Red (stored at 21-25° C., 26 days): 1.67 µg/mL | Stability of Plant-Derived Cannabinoid Compounds in AB Red (stored at 21-25° C., 29 days): 1.62 µg/mL | Stability of Plant-Derived Cannabinoid Compounds in AB Red (stored at 21-25° C., 30 days): 1.68 µg/mL | Stability of Plant-Derived Cannabinoid Compounds in AB Red (stored at 21-25° C., 60 days): 1.59 µg/mL | Stability of Plant-Derived Cannabinoid Compounds in AB Red (stored at 21-25° C., 90 days): 1.60 µg/mL | Stability of Plant-Derived Cannabinoid Compounds in AB Red (stored at 21-25° C., 120 days): 1.64 µg/mL | Stability of Plant-Derived Cannabinoid Compounds in AB Red (stored at 21-25° C., 150 days): 1.58 µg/mL | Stability of Plant-Derived Cannabinoid Compounds in AB Red (stored at 21-25° C., 180 days): 1.64 µg/mL | Stability of Plant-Derived Cannabinoid Compounds in AB Red (stored at 21-25° C., 210 days): 1.64 µg/mL | Stability of Plant-Derived Cannabinoid Compounds in AB Red (stored at 21-25° C., 240 days): 1.60 µg/mL | Stability of Plant-Derived Cannabinoid Compounds in AB Red (stored at 21-25° C., 270 days): 1.65 µg/mL | Stability of Plant-Derived Cannabinoid Compounds in AB Red (stored at 21-25° C., 300 days): 1.58 µg/mL | Stability of Plant-Derived Cannabinoid Compounds in AB Red (stored at 21-25° C., 330 days): 1.65 µg/mL | Stability of Plant-Derived Cannabinoid Compounds in AB Red (stored at 21-25° C., 360 days): 1.58 µg/mL | Stability of Plant-Derived Cannabinoid Compounds in AB Red (stored at 21-25° C., 390 days): 1.61 µg/mL | Stability of Plant-Derived Cannabinoid Compounds in AB Red (stored at 21-25° C., 420 days): 1.59 µg/mL | Stability of Plant-Derived Cannabinoid Compounds in AB Red (stored at 21-25° C., 450 days): 1.57 µg/mL | Stability of Plant-Derived Cannabinoid Compounds in AB Red (stored at 21-25° C., 480 days): 1.57 µg/mL | Stability of Plant-Derived Cannabinoid Compounds in AB Red (stored at 21-25° C., 510 days): 1.56 µg/mL | Stability of Plant-Derived Cannabinoid Compounds in AB Red (stored at 21-25° C., 540 days): 1.57 µg/mL | Stability of Plant-Derived Cannabinoid Compounds in AB Red (stored at 21-25° C., 570 days): 1.54 µg/mL
